As a reminder, the IC50 is the concentration that inhibits the measured activity by half.

HCV RNA-dependent RNA polymerase (NS5B protein), sequence (P26663 2420-3010 limits assumed): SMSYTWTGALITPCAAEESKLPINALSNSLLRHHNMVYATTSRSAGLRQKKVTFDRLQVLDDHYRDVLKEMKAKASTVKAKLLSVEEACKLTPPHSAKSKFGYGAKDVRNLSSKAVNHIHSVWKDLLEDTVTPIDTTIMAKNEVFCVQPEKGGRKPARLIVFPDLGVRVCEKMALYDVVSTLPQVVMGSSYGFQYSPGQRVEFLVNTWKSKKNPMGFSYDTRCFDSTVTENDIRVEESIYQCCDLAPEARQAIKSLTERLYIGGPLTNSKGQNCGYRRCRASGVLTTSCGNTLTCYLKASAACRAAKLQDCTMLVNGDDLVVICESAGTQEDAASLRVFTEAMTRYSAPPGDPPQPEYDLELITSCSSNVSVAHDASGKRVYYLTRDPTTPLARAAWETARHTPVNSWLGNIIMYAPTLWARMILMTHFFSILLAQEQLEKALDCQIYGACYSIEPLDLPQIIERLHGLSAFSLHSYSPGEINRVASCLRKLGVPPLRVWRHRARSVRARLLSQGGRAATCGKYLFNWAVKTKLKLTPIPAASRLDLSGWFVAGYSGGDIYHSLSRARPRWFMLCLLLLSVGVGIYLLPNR

This experiment has as its target HCV RNA-dependent RNA polymerase (NS5B protein) (Hepatitis C virus genotype 1b, UniProt P26663). Nature of the experiment: In vitro HCV RNA-dependent RNA polymerase assay (Assay 1, polyA/oligo dT, 32P-UTP incorporation). It counts as biochemical. The conditions noted are these: purified recombinant HCV NS5B, homopolymeric template/primer polyA/oligo dT; read-out: RNA pol Assay1 IC50. The procedure: Compounds were evaluated using an in vitro polymerase assay containing purified recombinant HCV RNA-dependent RNA polymerase (NS5B protein). HCV NS5B was expressed in insect cells using a recombinant baculovirus as vector. The experimental procedures used for the cloning, expression and purification of the HCV NS5B protein are described below. Follows, are details of the RNA-dependent RNA polymerase assays used to test the compounds.
The cDNA encoding the entire NS5B protein of HCV-Bk strain, genotype 1b, was amplified by PCR using the primers NS5Nhe5′ (5′-[…]-3′) (SEQ ID NO: 1) and XhoNS53′ (5′-[…]-3′) (SEQ ID NO: 2) and the plasmid pCD 3.8-9.4 as template (Tomei et al, 1993). NS5Nhe5′ and XhoNS53′ contain two NheI and XhoI sites (underlined sequences), respectively, at their 5′ end. The amplified DNA fragment was cloned in the bacterial expression plasmid pET-21b (Novagen) between the restriction sites NheI and XhoI, to generate the plasmid pET/NS5B. This plasmid was later used as template to […] the NS5B coding region, using the primers NS5B-H9 (5′-[…]-3′) (SEQ ID NO: 3) and NS5B-R4 (5′-[…]-3′) (SEQ ID NO: 4). NS5B-H9 spans a region of 15 nucleotides in the plasmid pET-21b followed by the translation initiation codon (ATG) and […] corresponding to the 5′ end of the NS5B coding region (nt. 7590-7607 in the HCV sequence with the accession number M58335) . NS5B-R4 contains two BamHI sites (underlined) followed by 18 nucleotides corresponding to the region around the stop codon in the HCV genome (nt. 9365-9347). The amplified sequence, of 1.8 kb, was digested with NheI and BamHI and ligated to a predigested pBlueBacII plasmid (Invitrogen) . The resulting recombinant plasmid was designated pBac/NS5B. Sf9 cells were co-transfected with 3 μg of pBac/NS5B, together with 1 μg of linearized baculovirus DNA (Invitrogen), as described in the manufacturer's protocol. Following two rounds of plaque purification, an NS5B-recombinant baculovirus, BacNS5B, was isolated. The presence of the recombinant NS5B protein was determined by western blot analysis (Harlow and Lane, 1988) of BacNS5B-infected Sf9 cells, using a rabbit polyclonal antiserum (anti-NS5B) raised against a His-tagged version of the NS5B protein expressed in E. coil. Infections of Sf9 cells with this plaque purified virus were performed in one-liter spinner flasks at a cell density of 1.2×10^6 cells/ml and a multiplicity of infection of 5.
Sf9 cells were infected as described above. Sixty hours post-infection, cells were harvested then washed twice with phosphate buffer saline (PBS). Total proteins were solubilized as described in Lohmann et al. (1997) with some modifications. In brief, proteins were extracted in three steps, S1, S2, S3, using lysis buffers (LB) I, LB II and LB III (Lohmann et al, 1997). The composition of LBII was modified to contain 0.1% triton X-100 and 150 mM NaCl to reduce the amount of solubilized NS5B protein at this step. In addition, sonication of cell extracts was avoided throughout the protocol to preserve the integrity of the protein structure.
Soluble NS5B protein in the S3 fraction was diluted to lower the NaCl concentration to 300 mM, then it incubated batchwise with DEAE sepharose beads (Amersham-Pharmacia) for 2 hrs at 4° C., as described by Behrens et al. (1996). Unbound material was cleared by centrifugation for 15 min at 4° C., at 25000 rpm using a SW41 rotor (Beckman). The supernatant was further diluted to lower the NaCl concentration to 200 mM and subsequently loaded, with a flow rate of 1 ml/min, on a 5 ml HiTrap® heparin column (Amersham-Pharmacia) connected to an FPLC® system (Amersham-Pharmacia). Bound proteins were eluted in 1 ml fractions, using a continuous NaCl gradient of 0.2 to 1 M, over a 25 ml volume. […]
For `Cc1ccc(C(=O)N(C)c2nc(-c3ccccc3)sc2C(=O)O)cc1` [Compound #1, 4-[Methyl-(4-methyl-benzoyl)-amino]-2-phenyl-thiazole-5-carboxylic acid], the IC50 is less than 5 µM.

For the compound `CN(C(=O)c1ccc(Cl)cc1Cl)c1nc(-c2ccccc2)sc1C(=O)O` [Compound #2, 4-[(2,4-Dichloro-benzoyl)-methyl-amino]-2-phenyl-thiazole-5-carboxylic acid], the IC50 is less than 5 µM.

For `CC(C)N(C(=O)c1ccc(Cl)cc1Cl)c1nc(-c2ccccc2)sc1C(=O)O` [Compound #3, 4-[(2,4-Dichloro-benzoyl)-isopropyl-amino]-2-phenyl-thiazole-5-carboxylic acid], the IC50 is less than 5 µM.

As to `CCN(C(=O)c1ccc(Cl)cc1Cl)c1nc(-c2ccccc2)sc1C(=O)O` [Compound #4, 4-[(2,4-Dichloro-benzoyl)-ethyl-amino]-2-phenyl-thiazole-5-carboxylic acid], the IC50 was less than 5 µM.

For `Cc1ccccc1S(=O)(=O)Nc1nc(-c2ccccc2)sc1C(=O)O` [Compound #5, 2-Phenyl-4-(toluene-2-sulfonylamino)-thiazole-5-carboxylic acid], the IC50 lay within 5 to 20 µM.

`Cc1ccc(C(=O)N(c2nc(-c3ccccc3)sc2C(=O)O)C(C)C)cc1` [Compound #6, 4-[Isopropyl-(4-methyl-benzoyl)-amino]-2-phenyl-thiazole-5-carboxylic acid]: the IC50 is less than 5 µM.

As for `O=C(Nc1nc(-c2ccccc2)sc1C(=O)O)c1ccc(Cl)cc1` [Compound #7, 4-(4-Chloro-benzoylamino)-2-phenyl-thiazole-5-carboxylic acid], the IC50 is greater than 20 µM.

In the case of `Cc1ccc(C(=O)Nc2nc(-c3ccccc3)sc2C(=O)O)c(C)c1` [Compound #8, 4-(2,4-Dimethyl-benzoylamino)-2-phenyl-thiazole-5-carboxylic acid], the half-inhibitory concentration (IC50) was greater than 20 µM.

Regarding `Cc1ccc(S(=O)(=O)Nc2nc(-c3ccccc3)sc2C(=O)O)c(C)c1` [Compound #9, 4-(2,4-Dimethyl-benzenesulfonylamino)-2-phenyl-thiazole-5-carboxylic acid], the IC50 is 5 to 20 µM.

As to `Cc1ccc(S(=O)(=O)Nc2nc(-c3ccccc3)sc2C(=O)O)cc1` [Compound #10, 2-Phenyl-4-(toluene-4-sulfonylamino)-thiazole-5-carboxylic acid], the IC50 is greater than 20 µM.

With `O=C(Nc1nc(-c2ccccc2)sc1C(=O)O)c1ccc(Cl)cc1Cl` [Compound #11, 4-(2,4-Dichloro-benzoylamino)-2-phenyl-thiazole-5-carboxylic acid], the IC50 was in the range of 5 to 20 µM.

As to `Cc1cccc(C(=O)Nc2nc(-c3ccccc3)sc2C(=O)O)c1` [Compound #12, 4-(3-Methyl-benzoylamino)-2-phenyl-thiazole-5-carboxylic acid], the IC50 was greater than 20 µM.

In the case of `CN(C(=O)c1ccccc1Cl)c1nc(-c2ccccc2)sc1C(=O)O` [Compound #13, 4-[(2-Chloro-benzoyl)-methyl-amino]-2-phenyl-thiazole-5-carboxylic acid], the IC50 is 5 to 20 µM.

As for `CN(C(=O)c1ccc(Cl)cc1)c1nc(-c2ccccc2)sc1C(=O)O` [Compound #14, 4-[(4-Chloro-benzoyl)-methyl-amino]-2-phenyl-thiazole-5-carboxylic acid], the IC50 is less than 5 µM.

For the compound `O=C(Nc1nc(-c2ccccc2)sc1C(=O)O)c1ccc(Cl)cc1` [Compound #15], the IC50 lay within 5 to 20 µM.

For `Cc1ccc(C(=O)N(C)c2nc(N3CCOCC3)sc2C(=O)O)c(C)c1` [Compound #16, 4-[(2,4-DIMETHYL-BENZOYL)-METHYL-AMINO]-2-MORPHOLIN-4-YL-THIAZOLE-5-CARBOXYLIC ACID], the IC50 is 5 to 20 µM.

These data come from patent publication US6936629B2, “Compounds and methods for the treatment or prevention of flavivirus infections” (ViroChem Pharma Inc., priority 2001, dated 2005).
